Measurements taken from ChEMBL document CHEMBL3822440, “Semi-synthesis and antiproliferative evaluation of PEGylated pentacyclic triterpenes” (Eur J Med Chem, 2016).

Tests used:
[1] = Cytotoxicity against mouse B16F10 cells assessed as growth inhibition after 72 hrs by MTT assay; type: functional, cell-based; settings: B16-F10, 72 h
HT-29 [2] = test: Cytotoxicity against human HT-29 cells assessed as growth inhibition after 72 hrs by MTT assay; type: functional, cell-based; settings: HT-29, 72 h
HepG2 [3] = test: Cytotoxicity against human HepG2 cells assessed as growth inhibition after 72 hrs by MTT assay; type: functional, cell-based; settings: HepG2, 72 h
B16-F10 [4] = test: Potency index, ratio of oleanolic acid IC50 to compound IC50 for mouse B16F10 cells; type: functional
HT-29 [5] = test: Potency index, ratio of oleanolic acid IC50 to compound IC50 for human HT-29 cells; type: functional
HepG2 [6] = test: Potency index, ratio of oleanolic acid IC50 to compound IC50 for human HepG2 cells; type: functional
[7] = Induction of apoptosis in mouse B16F10 cells assessed as live cells at cytotoxic IC50 after 72 hrs by Annexin V-FITC/propidium iodide staining based flow cytometry (reference value: 97.55 +/- 0.5%); type: functional, B16-F10
[8] = Induction of apoptosis in mouse B16F10 cells assessed as early apoptotic cells at cytotoxic IC50 after 72 hrs by Annexin V-FITC/propidium iodide staining based flow cytometry (reference value: 0.75 +/- 0.07%); type: functional, B16-F10
[9] = Induction of apoptosis in mouse B16F10 cells assessed as late apoptotic cells at cytotoxic IC50 after 72 hrs by Annexin V-FITC/propidium iodide staining based flow cytometry (reference value: 0.75 +/- 0.21%); type: functional, B16-F10
[10] = Induction of apoptosis in mouse B16F10 cells assessed as necrotic cells at cytotoxic IC50 after 72 hrs by Annexin V-FITC/propidium iodide staining based flow cytometry (reference value: 0.75 +/- 0.07%); type: functional, B16-F10
HT-29 [11] = test: Induction of apoptosis in human HT-29 cells assessed as live cells at cytotoxic IC50 after 72 hrs by Annexin V-FITC/propidium iodide staining based flow cytometry (reference value: 96.65 +/- 0.78%); type: functional
HT-29 [12] = test: Induction of apoptosis in human HT-29 cells assessed as early apoptotic cells at cytotoxic IC50 after 72 hrs by Annexin V-FITC/propidium iodide staining based flow cytometry (reference value: 1.65 +/- 0.07%); type: functional
HT-29 [13] = test: Induction of apoptosis in human HT-29 cells assessed as late apoptotic cells at cytotoxic IC50 after 72 hrs by Annexin V-FITC/propidium iodide staining based flow cytometry (reference value: 0.65 +/- 0.35%); type: functional
HT-29 [14] = test: Induction of apoptosis in human HT-29 cells assessed as necrotic cells at cytotoxic IC50 after 72 hrs by Annexin V-FITC/propidium iodide staining based flow cytometry (reference value: 1.05 +/- 0.35%); type: functional
HepG2 [15] = test: Induction of apoptosis in human HepG2 cells assessed as live cells at cytotoxic IC50 after 72 hrs by Annexin V-FITC/propidium iodide staining based flow cytometry (reference value: 99.55 +/- 0.07%); type: functional
HepG2 [16] = test: Induction of apoptosis in human HepG2 cells assessed as early apoptotic cells at cytotoxic IC50 after 72 hrs by Annexin V-FITC/propidium iodide staining based flow cytometry (reference value: 0.3 +/- 0.01%); type: functional
HepG2 [17] = test: Induction of apoptosis in human HepG2 cells assessed as late apoptotic cells at cytotoxic IC50 after 72 hrs by Annexin V-FITC/propidium iodide staining based flow cytometry relative to control; type: functional
HepG2 [18] = test: Induction of apoptosis in human HepG2 cells assessed as necrotic cells at cytotoxic IC50 after 72 hrs by Annexin V-FITC/propidium iodide staining based flow cytometry (reference value: 0.1 +/- 0.01%); type: functional
[19] = Cell cycle arrest in mouse B16F10 cells assessed as accumulation at G0/G1 phase at cytotoxic IC50 after 72 hrs by propidium iodide staining based flow cytometry (reference value: 50.69 +/- 0.61%); type: functional, B16-F10
[20] = Cell cycle arrest in mouse B16F10 cells assessed as accumulation at S phase at cytotoxic IC50 after 72 hrs by propidium iodide staining based flow cytometry (reference value: 48.31 +/- 0.74%); type: functional, B16-F10
[21] = Cell cycle arrest in mouse B16F10 cells assessed as accumulation at G2/M phase at cytotoxic IC50 after 72 hrs by propidium iodide staining based flow cytometry (reference value: 1.01 +/- 0.13%); type: functional, B16-F10
HT-29 [22] = test: Cell cycle arrest in human HT-29 cells assessed as accumulation at G0/G1 phase at cytotoxic IC50 after 72 hrs by propidium iodide staining based flow cytometry (reference value: 55.18 +/- 0.22%); type: functional
HT-29 [23] = test: Cell cycle arrest in human HT-29 cells assessed as accumulation at S phase at cytotoxic IC50 after 72 hrs by propidium iodide staining based flow cytometry (reference value: 48.31 +/- 1.49%); type: functional
HT-29 [24] = test: Cell cycle arrest in human HT-29 cells assessed as accumulation at G2/M phase at cytotoxic IC50 after 72 hrs by propidium iodide staining based flow cytometry (reference value: 6.23 +/- 1.7%); type: functional
HepG2 [25] = test: Cell cycle arrest in human HepG2 cells assessed as accumulation at G0/G1 phase at cytotoxic IC50 after 72 hrs by propidium iodide staining based flow cytometry (reference value: 39.41 +/- 1.56%); type: functional
HepG2 [26] = test: Cell cycle arrest in human HepG2 cells assessed as accumulation at S phase at cytotoxic IC50 after 72 hrs by propidium iodide staining based flow cytometry (reference value: 54.71 +/- 2.37%); type: functional
HepG2 [27] = test: Cell cycle arrest in human HepG2 cells assessed as accumulation at G2/M phase at cytotoxic IC50 after 72 hrs by propidium iodide staining based flow cytometry (reference value: 8.47 +/- 2.55%); type: functional
[28] = Disruption of mitochondrial membrane potential in mouse B16F10 cells assessed as rhodamine123 positive cells at cytotoxic IC50 after 72 hrs by propidium iodide staining based fluorescence spectroscopic analysis (reference value: 95.6 +/- 0.57%); type: functional, B16-F10
[29] = Disruption of mitochondrial membrane potential in mouse B16F10 cells assessed as rhodamine123 negative cells at cytotoxic IC50 after 72 hrs by propidium iodide staining based fluorescence spectroscopic analysis (reference value: 4.45 +/- 0.64%); type: functional, B16-F10
HT-29 [30] = test: Disruption of mitochondrial membrane potential in human HT-29 cells assessed as rhodamine123 positive cells at cytotoxic IC50 after 72 hrs by propidium iodide staining based fluorescence spectroscopic analysis (reference value: 94.25 +/- 0.35%); type: functional
HT-29 [31] = test: Disruption of mitochondrial membrane potential in human HT-29 cells assessed as rhodamine123 negative cells at cytotoxic IC50 after 72 hrs by propidium iodide staining based fluorescence spectroscopic analysis (reference value: 5.8 +/- 0.42%); type: functional
HepG2 [32] = test: Disruption of mitochondrial membrane potential in human HepG2 cells assessed as rhodamine123 positive cells at cytotoxic IC50 after 72 hrs by propidium iodide staining based fluorescence spectroscopic analysis (reference value: 88.3 +/- 8.87%); type: functional
HepG2 [33] = test: Disruption of mitochondrial membrane potential in human HepG2 cells assessed as rhodamine123 negative cells at cytotoxic IC50 after 72 hrs by propidium iodide staining based fluorescence spectroscopic analysis (reference value: 11.7 +/- 6.8%); type: functional
B16-F10 [34] = test: Potency index, ratio of maslinic acid IC50 to compound IC50 for mouse B16F10 cells; type: functional
HT-29 [35] = test: Potency index, ratio of maslinic acid IC50 to compound IC50 for human HT-29 cells; type: functional
HepG2 [36] = test: Potency index, ratio of maslinic acid IC50 to compound IC50 for human HepG2 cells; type: functional

## COCCOCCOCC(=O)O[C@H]1CC[C@]2(C)[C@H]3CC=C4[C@@H]5CC(C)(C)CC[C@]5(C(=O)O)CC[C@@]4(C)[C@]3(C)CC[C@H]2C1(C)C
[1]
  IC50: 17.2 µM
HT-29 [2]
  IC50: 13.5 µM
HepG2 [3]
  IC50: 17.5 µM
B16-F10 [4]
  Ratio IC50: 6.2
HT-29 [5]
  Ratio IC50: 31.9
HepG2 [6]
  Ratio IC50: 12.1
[7]
  Activity: 52.75%
[8]
  Activity: 6.8%
[9]
  Activity: 39.6%
[10]
  Activity: 0.35%
HT-29 [11]
  Activity: 51.85%
HT-29 [12]
  Activity: 34.7%
HT-29 [13]
  Activity: 13.45%
HT-29 [14]
  Activity: 0%
HepG2 [15]
  Activity: 43.5%
HepG2 [16]
  Activity: 38.65%
HepG2 [17]
  Activity: 17.7%
HepG2 [18]
  Activity: 0.2%
[19]
  Activity: 74.28%
[20]
  Activity: 25.44%
[21]
  Activity: 0.28%
HT-29 [22]
  Activity: 63.47%
HT-29 [23]
  Activity: 49.98%
HT-29 [24]
  Activity: 0%
HepG2 [25]
  Activity: 38.88%
HepG2 [26]
  Activity: 45.44%
HepG2 [27]
  Activity: 14.18%
[28]
  Activity: 79.45%
[29]
  Activity: 20.65%
HT-29 [30]
  Activity: 88.65%
HT-29 [31]
  Activity: 11.35%
HepG2 [32]
  Activity: 13.95%
HepG2 [33]
  Activity: 86.05%

## CC1(C)CC[C@]2(C(=O)NCCCOCCOCCOCCCN)CC[C@]3(C)C(=CC[C@@H]4[C@@]5(C)CC[C@H](O)C(C)(C)[C@@H]5CC[C@]43C)[C@@H]2C1
[1]
  IC50: 3.78 µM
HT-29 [2]
  IC50: 3.58 µM
HepG2 [3]
  IC50: 0.22 µM
B16-F10 [4]
  Ratio IC50: 28.1
HT-29 [5]
  Ratio IC50: 120.1
HepG2 [6]
  Ratio IC50: 962.7
[7]
  Activity: 27.55%
[8]
  Activity: 59.65%
[9]
  Activity: 12.85%
[10]
  Activity: 0%
HT-29 [11]
  Activity: 72.45%
HT-29 [12]
  Activity: 19.7%
HT-29 [13]
  Activity: 7.45%
HT-29 [14]
  Activity: 0.25%
HepG2 [15]
  Activity: 41.35%
HepG2 [16]
  Activity: 35.9%
HepG2 [17]
  Activity: 22.45%
HepG2 [18]
  Activity: 0.35%
[19]
  Activity: 63.89%
[20]
  Activity: 31.33%
[21]
  Activity: 4.78%
HT-29 [22]
  Activity: 87.11%
HT-29 [23]
  Activity: 4.78%
HT-29 [24]
  Activity: 8.12%
HepG2 [25]
  Activity: 52.7%
HepG2 [26]
  Activity: 46.97%
HepG2 [27]
  Activity: 0.34%
[28]
  Activity: 20.75%
[29]
  Activity: 79.3%
HT-29 [30]
  Activity: 23.75%
HT-29 [31]
  Activity: 76.3%
HepG2 [32]
  Activity: 80.45%
HepG2 [33]
  Activity: 19.6%

## COCCOCCOCC(=O)O[C@@H]1C[C@]2(C)[C@H]3CC=C4[C@@H]5CC(C)(C)CC[C@]5(C(=O)OCc5ccccc5)CC[C@@]4(C)[C@]3(C)CC[C@H]2C(C)(C)[C@H]1OC(=O)COCCOCCOC
[1]
  IC50: 21.1 µM
HT-29 [2]
  IC50: 31.6 µM
HepG2 [3]
  IC50: 12.8 µM
B16-F10 [34]
  Ratio IC50: 1.7
HT-29 [35]
  Ratio IC50: 1
HepG2 [36]
  Ratio IC50: 7.8
[7]
  Activity: 2.7%
[8]
  Activity: 29.6%
[9]
  Activity: 67.25%
[10]
  Activity: 0.8%
HT-29 [11]
  Activity: 48.95%
HT-29 [12]
  Activity: 43.95%
HT-29 [13]
  Activity: 6.7%
HT-29 [14]
  Activity: 0.15%
HepG2 [15]
  Activity: 37%
HepG2 [16]
  Activity: 18.65%
HepG2 [17]
  Activity: 44.35%
HepG2 [18]
  Activity: 0%
[19]
  Activity: 83.03%
[20]
  Activity: 13.13%
[21]
  Activity: 3.85%
HT-29 [22]
  Activity: 91.87%
HT-29 [23]
  Activity: 6.63%
HT-29 [24]
  Activity: 1.51%
HepG2 [25]
  Activity: 65.2%
HepG2 [26]
  Activity: 19.76%
HepG2 [27]
  Activity: 15.04%
[28]
  Activity: 81.35%
[29]
  Activity: 18.6%
HT-29 [30]
  Activity: 3.15%
HT-29 [31]
  Activity: 96.9%
HepG2 [32]
  Activity: 45.7%
HepG2 [33]
  Activity: 54.25%
